Test results: patent US4650753A, “Novel substrates for use in measuring the concentration of kallikrein in urine” (Nitto Boseki Co., Ltd., priority 1984, dated 1987)

What was measured:
Urokinase (UK) = target: T1, Urokinase (UK) (Homo sapiens, UniProt P00749); experiment: Substrate specificity test: hydrolysis by urokinase, colorimetric; assay type: biochemical; details: for Absorbance (O.D.), UK: 700 nm (CHA substrate, pentacyanoamineferroate), S0 = 0.4 m mole, pH 8.2, 37° C., 5 minutes, 1000 U/ml enzyme
T1 construct: purchased Mochida Pharmaceutical Co., Ltd. Lot No. 2C239
Description: (§1) The specificities of newly synthesized substrates were tested by reacting each of them with various enzymes as follows.
(§2) (1) Substrate solution: 2 m moles/liter.H2 O
(§3) (2) Buffer solutions: 50 m moles of tris(hydroxymethyl)aminomethane/hydrochloric acid buffer solution and 150 m moles/liter of NaCl solution were used, and the reaction pH were specified with respect to the enzymes as follows. […]
(§4) (4) Reaction stopper (PNA): 10%-acetic acid
(§5) (5) Chromogenic reagent (CHA): Pentacyanoamineferroate
(§6) (6) Method of determination:
(§7) 0.3 Milliliter of the buffer solution and 0.1 ml of the enzyme reagent were taken in a hard glass test tube of which surface being treated with silicone, or a plastic test tube and preheated in a thermostat at 37° C. for 5 minutes so as to conduct the enzymatic reaction. Precisely 5 minutes after the reaction was started, 2.0 ml of reaction stopper solution or reaction terminating chromogenic reagent was added to terminate the enzymatic reaction. After the enzymatic reaction was completed, the reaction mixture was allowed to stand at 37° C. for 10 minutes, and then the absorbance at 405 nm or 700 nm was measured.

Thrombin (TH) = target: T2, Thrombin (TH) (Bos taurus, UniProt P00735); experiment: Substrate specificity test: hydrolysis by thrombin, colorimetric; assay type: biochemical, Bovine; details: for Absorbance (O.D.), TH: 700 nm (CHA substrate, pentacyanoamineferroate), S0 = 0.4 m mole, pH 8.5, 37° C., 5 minutes, 4.0 NIH/ml enzyme
T2 construct: purchased Mochida Pharmaceutical Co., Ltd. Lot No. 65146
Description: as §1, §2, §3, §4, §5, §6, §7

[1] = target: T3, Human kallikrein in urine (HUK) (Homo sapiens, UniProt P06870); experiment: Substrate specificity test: hydrolysis by human kallikrein in urine, colorimetric; assay type: biochemical; details: for Absorbance (O.D.), HUK: 700 nm (CHA substrate, pentacyanoamineferroate), S0 = 0.4 m mole, pH 9.0, 37° C., 5 minutes, 0.1 U/ml enzyme
T3 construct: purchased The Green Cross Corporation Lot No. Y1003SM
Description: as §1, §2, §3, §4, §5, §6, §7

Plasmin (PL) = target: T4, Plasmin (PL) (Homo sapiens, UniProt P00747); experiment: Substrate specificity test: hydrolysis by plasmin, colorimetric; assay type: biochemical; details: for Absorbance (O.D.), PL: 700 nm (CHA substrate, pentacyanoamineferroate), S0 = 0.4 m mole, pH 7.8, 37° C., 5 minutes, 0.25 CU/ml enzyme
T4 construct: purchased The Green Cross Corporation Lot No. PL-35
Description: as §1, §2, §3, §4, §5, §6, §7

[2] = PS-2103N given as 100, S0 = 0.4 m mol

T4 sequence (P00747 581-810 limits assumed): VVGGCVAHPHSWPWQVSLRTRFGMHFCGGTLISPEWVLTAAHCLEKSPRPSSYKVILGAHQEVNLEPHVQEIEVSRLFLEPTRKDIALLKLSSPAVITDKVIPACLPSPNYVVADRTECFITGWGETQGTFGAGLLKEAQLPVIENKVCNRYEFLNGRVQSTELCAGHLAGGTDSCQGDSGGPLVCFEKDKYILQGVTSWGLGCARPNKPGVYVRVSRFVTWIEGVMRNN
T4 sequence (P00747 97-580 partner limits assumed): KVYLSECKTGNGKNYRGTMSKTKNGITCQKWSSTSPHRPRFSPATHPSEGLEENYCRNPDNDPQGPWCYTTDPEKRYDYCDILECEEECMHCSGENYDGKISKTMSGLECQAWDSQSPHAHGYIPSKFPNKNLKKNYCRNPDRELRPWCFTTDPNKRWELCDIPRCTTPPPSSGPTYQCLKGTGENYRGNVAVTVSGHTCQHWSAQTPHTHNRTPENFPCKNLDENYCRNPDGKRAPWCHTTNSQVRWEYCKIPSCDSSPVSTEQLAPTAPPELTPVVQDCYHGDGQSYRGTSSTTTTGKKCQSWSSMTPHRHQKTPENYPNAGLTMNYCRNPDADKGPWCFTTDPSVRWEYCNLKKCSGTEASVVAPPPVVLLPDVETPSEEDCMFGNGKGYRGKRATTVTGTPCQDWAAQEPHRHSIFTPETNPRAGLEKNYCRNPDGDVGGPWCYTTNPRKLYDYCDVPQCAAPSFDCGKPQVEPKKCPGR
T3 sequence (P06870 25-262): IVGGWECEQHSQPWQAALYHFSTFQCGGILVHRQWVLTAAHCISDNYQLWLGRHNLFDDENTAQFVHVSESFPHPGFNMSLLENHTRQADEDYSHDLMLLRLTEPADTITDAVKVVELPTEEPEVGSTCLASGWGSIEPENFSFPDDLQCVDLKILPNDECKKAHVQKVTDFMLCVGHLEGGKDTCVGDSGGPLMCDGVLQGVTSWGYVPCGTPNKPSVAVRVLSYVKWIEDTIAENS

| Substance | Absorbance (O.D.), UK (Urokinase (UK)) | Relative reactivity to enzymes, UK (Urokinase (UK); [2]) | reactivity to urokinase (Urokinase (UK); relative to PS-2103N = 100) | Absorbance (O.D.), TH (Thrombin (TH)) | Relative reactivity to enzymes, TH (Thrombin (TH); [2]) | reactivity to thrombin (Thrombin (TH); relative to PS-2103N = 100) | Absorbance (O.D.), HUK [1] | Relative reactivity to enzymes, HUK [1, 2] | Absorbance (O.D.), PL (Plasmin (PL)) | Relative reactivity to enzymes, PL (Plasmin (PL); [2]) | reactivity to plasmin (Plasmin (PL); relative to PS-2103N = 100) |
| --- | --- | --- | --- | --- | --- | --- | --- | --- | --- | --- | --- |
| H-D-Ala-Phe-Arg-CHA [PS-2103] | 0.0 OD | 0 | 0% | 0.007 OD | 7 | 7% | 0.599 OD | 242 | 0.011 OD | 4 | 4% |
| H-D-Pro-Phe-Arg-CHA [PS-2100] | 0.003 OD |  |  | 0.016 OD |  |  | 0.244 OD |  | 0.014 OD |  |  |
| H-D-PGlu-Phe-Arg-CHA [PS-2102] | 0.0 OD |  |  | 0.005 OD |  |  | 0.128 OD |  | 0.016 OD |  |  |
